Measurements: patent publication US20140120087A1, “TRIAZOLOPYRIDINES” (BAYER INTELLECTUAL PROPERTY GMBH, priority 2011, published 2014)

Tests used:
[1] = target: T1, Mps-1 kinase (Homo sapiens, UniProt P33981); test: Mps-1 kinase assay with 10 μM ATP (TR-FRET)
T1 sequence (P33981 1-857): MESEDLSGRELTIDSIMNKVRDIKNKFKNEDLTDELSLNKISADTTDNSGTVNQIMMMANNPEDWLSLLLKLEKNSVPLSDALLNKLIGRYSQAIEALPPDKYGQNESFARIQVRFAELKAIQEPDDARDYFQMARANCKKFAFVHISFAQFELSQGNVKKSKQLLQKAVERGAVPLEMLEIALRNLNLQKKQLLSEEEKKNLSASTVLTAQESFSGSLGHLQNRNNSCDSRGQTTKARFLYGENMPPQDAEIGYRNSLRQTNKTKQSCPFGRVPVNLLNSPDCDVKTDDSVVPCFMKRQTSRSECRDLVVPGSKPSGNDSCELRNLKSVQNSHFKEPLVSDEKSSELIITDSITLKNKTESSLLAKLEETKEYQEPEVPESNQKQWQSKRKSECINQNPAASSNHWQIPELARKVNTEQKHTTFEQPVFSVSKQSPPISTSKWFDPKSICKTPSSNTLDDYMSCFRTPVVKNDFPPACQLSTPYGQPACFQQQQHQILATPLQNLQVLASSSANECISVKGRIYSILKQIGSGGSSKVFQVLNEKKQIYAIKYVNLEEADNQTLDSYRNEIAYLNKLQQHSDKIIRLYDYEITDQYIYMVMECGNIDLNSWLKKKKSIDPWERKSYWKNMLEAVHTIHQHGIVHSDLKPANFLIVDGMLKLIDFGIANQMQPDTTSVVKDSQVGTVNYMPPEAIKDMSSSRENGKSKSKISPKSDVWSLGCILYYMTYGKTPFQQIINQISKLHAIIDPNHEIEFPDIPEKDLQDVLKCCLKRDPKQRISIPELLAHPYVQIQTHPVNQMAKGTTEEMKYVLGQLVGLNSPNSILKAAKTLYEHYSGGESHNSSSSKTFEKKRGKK

[2] = Hydrolytic stability assay at pH 2; assay type: physicochemical; conditions: buffer pH 2, 37° C., compounds of the invention
Experimental: The hydrolytic stability assay investigates the stability of a compound in an aqueous buffer system. Standard solution stability assay is run in 0.05 M Phosphate buffer at pH 7.4 (pH of blood plasma) at 37° C. As compounds in the GI tract are exposed to a wide variety of pHs any relevant pH (as pH 2 to simulate the acidic condition of the GI tract in the following experiment) can be chosen. Compounds are incubated in relevant solution at 37° C. and analyzed by HPLC immediately after incubation and after 1, 2 and 24 hrs. Degradation rate (decay in %) is calculated by relating peak areas after 1, 2 and 24 hrs to the time zero injection.
Compound is available as 10 mM in DMSO (solution 1). 2.5 μL of solution 1 is dissolved in 1 mL acetonitrile leading to solution 2. Poorly soluble compounds may demand another dilution step of solution 2 (1:5 and 1:10 respectively) in Acetonitrile). Solution 2 is incubated at 37° C. in a tempered HPLC autosampler. 1 mL buffer pH 2 is transferred into an HPLC vial. 100 μL of solution 2 is added to the buffer pH 2 solution and mixed thoroughly. Immediately after mixing the combined solution is injected into the HPLC to give the time zero injection. Injections are repeated after 1, 2 and 24 hrs.
The degradation rate (decay in %) is calculated using HPLC software Millennium and Excel respectively.

[3] = target: T1, Mps-1 kinase; test: Mps-1 kinase assay with 2 mM ATP (TR-FRET)

Row | SMILES | IC50 [1] [nM] | Hydrolysis at pH 2; Decay in % after 24 h [2] [%] | IC50 [3] [nM]
1 | CCOc1cc(C(=O)NCCO)ccc1Nc1nc2ccc(-c3ccc(C(=O)NCc4ccc(F)cc4)cc3)cn2n1 [Example 02.2, 3-ethoxy-4-[(6-{4-[(4-fluorobenzyl)carbamoyl]phenyl}[1,2,4]triazolo[1,5-α]pyridin-2-yl)amino]-N-(2-hydroxyethyl)benzamide] | ≤ 1 | <10 | ≤ 1
2 | CCOc1cc(C(=O)NC(C)(C)CO)ccc1Nc1nc2ccc(-c3ccc(C(=O)NCc4ccc(F)cc4)cc3)cn2n1 [Example 02.3, 3-ethoxy-4-[(6-{4-[(4-fluorobenzyl)carbamoyl]phenyl}[1,2,4]triazolo[1,5-α]pyridin-2-yl)amino]-N-(1-hydroxy-2-methylpropan-2-yl)benzamide] | ≤ 1 | <10 | ≤ 1
3 | O=C(NCCO)c1ccc(Nc2nc3ccc(-c4ccc(C(=O)NCc5ccc(F)cc5)cc4)cn3n2)c(OCC(F)(F)F)c1 [Example 02.4, 4-[(6-{4-[(4-fluorobenzyl)carbamoyl]phenyl}[1,2,4]triazolo[1,5-α]pyridin-2-yl)amino]-N-(2-hydroxyethyl)-3-(2,2,2-trifluoroethoxy)benzamide] | ≤ 1 | <10 | ≤ 1
4 | COc1cc(C(=O)NCC(C)(C)O)ccc1Nc1nc2ccc(-c3ccc(C(=O)NCc4ccc(F)cc4)cc3)cn2n1 [Example 02.5, 4-[(6-{4-[(4-fluorobenzyl)carbamoyl]phenyl}[1,2,4]triazolo[1,5-α]pyridin-2-yl)amino]-N-(2-hydroxy-2-methylpropyl)-3-methoxybenzamide] | ≤ 1 | <10 | 1.8
5 | COc1cc(S(C)(=O)=O)ccc1Nc1nc2ccc(-c3ccc(C(=O)NCc4ccc(F)cc4)cc3)cn2n1 [Example 02.6, N-(4-fluorobenzyl)-4-(2-{[2-methoxy-4-(methylsulfonyl)phenyl]amino}-[1,2,4]triazolo[1,5-α]pyridin-6-yl)benzamide] | ≤ 1 | <10 | 4.3
6 | CCOc1cc(C(=O)NCC(C)(C)O)ccc1Nc1nc2ccc(-c3ccc(C(=O)NCc4ccc(F)cc4)cc3)cn2n1 [Example 02.7, 3-ethoxy-4-[(6-{4-[(4-fluorobenzyl)carbamoyl]phenyl}[1,2,4]triazolo[1,5-α]pyridin-2-yl)amino]-N-(2-hydroxy-2-methylpropyl)benzamide] | ≤ 1 | <10 | ≤ 1
7 | COc1cc(C(=O)NC(C)(C)CO)ccc1Nc1nc2ccc(-c3ccc(C(=O)NCc4ccc(F)cc4)cc3)cn2n1 [Example 02.8, 4-[(6-{4-[(4-fluorobenzyl)carbamoyl]phenyl}[1,2,4]triazolo[1,5-α]pyridin-2-yl)amino]-N-(1-hydroxy-2-methylpropan-2-yl)-3-methoxybenzamide] | ≤ 1 | <10 | 1.5
8 | COc1cc(C(=O)N(C)CCN(C)C(C)=O)ccc1Nc1nc2ccc(-c3ccc(C(=O)NCc4ccc(F)cc4)cc3)cn2n1 [Example 02.9, N-{2-[acetyl(methyl)amino]ethyl}-4-[(6-{4-[(4-fluorobenzyl)carbamoyl]-phenyl}[1,2,4]triazolo[1,5-α]pyridin-2-yl)amino]-3-methoxy-N-methylbenzamide] | ≤ 1 | <10 | 2.2
9 | CCOCCNC(=O)c1ccc(Nc2nc3ccc(-c4ccc(C(=O)NCc5ccc(F)cc5)cc4)cn3n2)c(OC)c1 [Example 02.10, N-(2-ethoxyethyl)-4-[(6-{4-[(4-fluorobenzyl)carbamoyl]phenyl}[1,2,4]-triazolo[1,5-α]pyridin-2-yl)amino]-3-methoxybenzamide] | ≤ 1 | <10 | 2.3
10 | CNCCN(C)C(=O)c1ccc(Nc2nc3ccc(-c4ccc(C(=O)NCc5ccc(F)cc5)cc4)cn3n2)c(OC)c1 [Example 02.11, 4-[(6-{4-[(4-fluorobenzyl)carbamoyl]phenyl}[1,2,4]triazolo[1,5-α]pyridin-2-yl)amino]-3-methoxy-N-methyl-N-[2-(methylamino)ethyl]benzamide] | ≤ 1 | <10 | ≤ 1
11 | CCOc1cc(C(=O)N(C)CCO)ccc1Nc1nc2ccc(-c3ccc(C(=O)NCc4ccc(F)cc4)cc3)cn2n1 [Example 02.12, 3-ethoxy-4-[(6-{4-[(4-fluorobenzyl)carbamoyl]phenyl}[1,2,4]triazolo[1,5-α]pyridin-2-yl)amino]-N-(2-hydroxyethyl)-N-methylbenzamide] | ≤ 1 | <10 | ≤ 1
12 | CNC(=O)c1ccc(Nc2nc3ccc(-c4ccc(C(=O)NCc5ccc(F)cc5)cc4)cn3n2)c(OC)c1 [Example 02.13, 4-[(6-{4-[(4-fluorobenzyl)carbamoyl]phenyl}[1,2,4]triazolo[1,5-α]pyridin-2-yl)amino]-3-methoxy-N-methylbenzamide] | ≤ 1 | <10 | ≤ 1
13 | COc1cc(C(=O)NC(C)(C)C)ccc1Nc1nc2ccc(-c3ccc(C(=O)NCc4ccc(F)cc4)cc3)cn2n1 [Example 02.14, N-tert-butyl-4-[(6-{4-[(4-fluorobenzyl)carbamoyl]phenyl}[1,2,4]triazolo-[1,5-α]pyridin-2-yl)amino]-3-methoxybenzamide] | ≤ 1 | <10 | 2.4
14 | COc1cc(C(=O)NCCS(C)(=O)=O)ccc1Nc1nc2ccc(-c3ccc(C(=O)NCc4ccc(F)cc4)cc3)cn2n1 [Example 02.15, 4-[(6-{4-[(4-fluorobenzyl)carbamoyl]phenyl}[1,2,4]triazolo[1,5-α]pyridin-2-yl)amino]-3-methoxy-N-[2-(methylsulfonyl)ethyl]benzamide] | ≤ 1 | <10 | ≤ 1
15 | COc1ccc(Nc2nc3ccc(-c4ccc(C(=O)NCc5ccc(F)cc5)cc4)cn3n2)c(OC)c1 [Example 02.16, 4-{2-[(2,4-dimethoxyphenyl)amino][1,2,4]triazolo[1,5-α]pyridin-6-yl}-N-(4-fluorobenzyl)benzamide] | ≤ 1 | <10 | 3.8
16 | COc1cc(C(=O)NCC(F)(F)F)ccc1Nc1nc2ccc(-c3ccc(C(=O)NCc4ccc(F)cc4)cc3)cn2n1 [Example 02.17, 4-[(6-{4-[(4-fluorobenzyl)carbamoyl]phenyl}[1,2,4]triazolo[1,5-α]pyridin-2-yl)amino]-3-methoxy-N-(2,2,2-trifluoroethyl)benzamide] | ≤ 1 | <10 | 4.6
17 | CC(C)(CO)NC(=O)c1ccc(Nc2nc3ccc(-c4ccc(C(=O)NCc5ccc(F)cc5)cc4)cn3n2)c(OCC(F)(F)F)c1 [Example 02.18, 4-[(6-{4-[(4-fluorobenzyl)carbamoyl]phenyl}[1,2,4]triazolo[1,5-α]pyridin-2-yl)amino]-N-(1-hydroxy-2-methylpropan-2-yl)-3-(2,2,2-trifluoroethoxy)-benzamide] | ≤ 1 | <10 | ≤ 1
18 | CCOc1cc(C(=O)NCCS(C)(=O)=O)ccc1Nc1nc2ccc(-c3ccc(C(=O)NCc4ccc(F)cc4)cc3)cn2n1 [Example 02.19, 3-ethoxy-4-[(6-{4-[(4-fluorobenzyl)carbamoyl]phenyl}[1,2,4]triazolo[1,5-α]pyridin-2-yl)amino]-N-[2-(methylsulfonyl)ethyl]benzamide] | ≤ 1 | <10 | ≤ 1
